Measured values reported in the NIST ThermoML archive (doi:10.1016/j.tca.2014.07.018).
Several values for one entry are separate records, joined by “and”; a condition that tells them apart may be missing. Equal entries are not always repeated.

Tests used:
[1] = Crystal; for molar entropy / mass density: 101.33 kPa; for molar entropy: Small (less than 1 g) adiabatic calorimetry; for vapor or sublimation pressure: Calculated from knudsen effusion weight loss
[2] = molar heat capacity at constant pressure; conditions: 101.33 kPa, Crystal, Small (less than 1 g) adiabatic calorimetry

C1C2CC3CC1CC(c1nnn[nH]1)(C2)C3 [5-(1-adamantyl)tetrazole]
Conditions	Normal melting temperature [°C]	molar entropy [J/K/mol]	molar heat capacity at constant pressure [J/K/mol]	vapor or sublimation pressure
[1], 5 K	–	0.1627	–	–
[1], 10 K	–	1.359	–	–
[1], 15 K	–	4.002	–	–
[1], 20 K	–	7.655	–	–
[1], 25 K	–	11.89	–	–
[1], 30 K	–	16.44	–	–
[1], 35 K	–	21.13	–	–
[1], 40 K	–	25.84	–	–
[1], 45 K	–	30.53	–	–
[1], 50 K	–	35.17	–	–
[1], 60 K	–	44.22	–	–
[1], 70 K	–	52.95	–	–
[1], 80 K	–	61.41	–	–
[1], 90 K	–	69.64	–	–
[1], 100 K	–	77.69	–	–
[1], 120 K	–	93.37	–	–
[1], 140 K	–	108.7	–	–
[1], 160 K	–	123.8	–	–
[1], 180 K	–	138.9	–	–
[1], 200 K	–	154	–	–
[1], 220 K	–	169.4	–	–
[1], 240 K	–	185	–	–
[1], 260 K	–	200.8	–	–
[1], 280 K	–	216.8	–	–
[1], 298.15 K	–	231.5	–	–
[1], 300 K	–	232.9	–	–
[1], 320 K	–	249	–	–
[1], 340 K	–	265	–	–
[1], 360 K	–	281	–	–
[1], 370 K	–	289	–	–
[1], 393.68 K	–	–	–	5.34e-05 kPa
[1], 398.71 K	–	–	–	8.43e-05 kPa and 8.47e-05 kPa
[1], 403.71 K	–	–	–	0.0001344 kPa
[1], 403.72 K	–	–	–	0.0001377 kPa
[1], 403.74 K	–	–	–	0.0001377 kPa
[1], 408.72 K	–	–	–	0.0002136 kPa and 0.0002121 kPa
[1], 408.74 K	–	–	–	0.0002167 kPa
[1], 413.74 K	–	–	–	0.0003204 kPa
[1], 413.75 K	–	–	–	0.0003212 kPa
[1], 413.76 K	–	–	–	0.0003363 kPa
[1], 418.74 K	–	–	–	0.0005125 kPa
[1], 418.77 K	–	–	–	0.0005047 kPa
[1], 418.8 K	–	–	–	0.000516 kPa
[1], visual observation	251.00	–	–	–
[2], 5 K	–	–	0.4912	–
[2], 10 K	–	–	3.942	–
[2], 15 K	–	–	9.695	–
[2], 20 K	–	–	16.01	–
[2], 25 K	–	–	22.15	–
[2], 30 K	–	–	27.84	–
[2], 35 K	–	–	32.99	–
[2], 40 K	–	–	37.67	–
[2], 45 K	–	–	42	–
[2], 50 K	–	–	46.01	–
[2], 60 K	–	–	53.34	–
[2], 70 K	–	–	60.13	–
[2], 80 K	–	–	66.67	–
[2], 90 K	–	–	73.18	–
[2], 100 K	–	–	79.7	–
[2], 120 K	–	–	92.76	–
[2], 140 K	–	–	106.3	–
[2], 160 K	–	–	120.6	–
[2], 180 K	–	–	136	–
[2], 200 K	–	–	152.5	–
[2], 220 K	–	–	170	–
[2], 240 K	–	–	188.4	–
[2], 260 K	–	–	207.4	–
[2], 280 K	–	–	225.3	–
[2], 298.15 K	–	–	240	–
[2], 300 K	–	–	241.6	–
[2], 320 K	–	–	256.9	–
[2], 340 K	–	–	272	–
[2], 360 K	–	–	287.6	–
[2], 370 K	–	–	295.6	–

[1]
Conditions	mass density [kg/m3]
100 K, X-ray diffraction	1308
292.15 K, Pycnometric method	1470
